PMC11480411, “Mucosal sugars delineate pyrazine vs pyrazinone autoinducer signaling in Klebsiella oxytoca” (Nature Communications, 2024)
Where “and” joins values, the source holds several entries; their conditions need not be identical. Identical values can stand only once.

What was measured:
[1] = test system: ∆pyr K. oxytoca; test: RNA-seq of compound-supplemented ∆pyr K. oxytoca; type: cell-based, Klebsiella oxytoca ATCC 8724; settings: 10 µM
Protocol: A ∆pyr K. oxytoca glycerol stock was streaked onto an LB-Agar plate supplemented with spectinomycin (50 µg/mL) and incubated aerobically at 30°C for 24 h in a stationary incubator. Single colonies were grown for 24 h aerobically in 5 mL of M9 minimal medium supplemented with 5 g/L casamino acids and 0.4% D-galactose at 30 °C and 250 rpm. Each ∆pyr K. oxytoca overnight culture was diluted 1:1000 into fresh medium (5 mL) and incubated aerobically at 30 °C and 250 rpm to mid-exponential growth (OD600 = 0.8). These conditions abrogated both detectable pyrazine and pyrazinone production. At this point, 10 µM of compound in DMSO, were added to the cultures; an equal volume of DMSO was added to cultures without compound as a solvent vehicle control. The cultures were incubated under aerobic conditions with the compounds for one hour at 30 °C and at 250 rpm. After incubation, the cultures were centrifuged, the supernatants were decanted, and the cell pellets were quickly resuspended in 5 mL of Bacterial RNAProtect (Qiagen). The samples were centrifuged again, and the pellets were frozen on dry ice and stored at −80 °C until RNA extraction. The processed cell pellets were thawed on ice and resuspended in 200 µL of lysis buffer (10 mM Tris, 1 mM EDTA, 5 mg/mL lysozyme, 12.5 µg/mL proteinase K [pH 8.0]) and incubated at room temperature for 10 min. The RNA was extracted via the Qiagen RNeasy Mini kit, treated with TURBO DNase in a total volume of 100 µL at room temperature for 30 min, and extracted again using an RNeasy Mini kit. RNA-seq analysis was conducted by the Yale Center for Genome Analysis. Sequences were aligned to the K. oxytoca ATCC 8724 genome (NC_016612.1). Differential expression analysis was performed through DESeq2 and pathway enrichment analysis was performed through the Funage-Pro web-based platform.

[2] = target: T1, HRH1 (Homo sapiens, UniProt P35367); test: PRESTO-Tango GPCR screen and dose-response; type: cell-based; settings: for HRH1 dose-response raw reporter signal (Fig. 5b source data): replicate wells
T1 construct: expressed in transfected cells; host or cells: HTLA cells (HEK293 line stably expressing β-arrestin-TEV and tTA-Luciferase)
T1 sequence (P35367 whole entry): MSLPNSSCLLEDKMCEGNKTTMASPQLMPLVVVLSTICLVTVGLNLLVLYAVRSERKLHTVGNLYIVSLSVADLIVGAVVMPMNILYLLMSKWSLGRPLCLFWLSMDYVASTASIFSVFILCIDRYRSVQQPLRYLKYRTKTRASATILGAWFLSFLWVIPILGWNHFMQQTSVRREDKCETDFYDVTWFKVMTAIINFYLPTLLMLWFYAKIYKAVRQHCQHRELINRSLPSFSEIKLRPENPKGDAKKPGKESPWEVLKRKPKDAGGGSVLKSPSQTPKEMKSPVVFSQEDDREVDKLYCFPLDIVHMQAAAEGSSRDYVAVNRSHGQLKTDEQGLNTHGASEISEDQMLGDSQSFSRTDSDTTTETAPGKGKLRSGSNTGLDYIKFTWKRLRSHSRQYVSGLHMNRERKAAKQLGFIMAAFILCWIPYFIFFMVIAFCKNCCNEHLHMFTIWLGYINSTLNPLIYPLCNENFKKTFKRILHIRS
Protocol: (§1) The PRESTO-Tango analyses were performed as previously published. Briefly, HTLA cells, a HEK293 cell line that stably expresses β-arrestin-TEV and tTA-Luciferase (a kind gift from Gilad Barnea, Brown University), were plated in 96-well tissue culture plates (Eppendorf) in DMEM containing 10% FBS and 1% Penicillin/Streptomycin. One day after plating (after reaching approximately 90% confluence), 200 ng per well GPCR-Tango plasmids[37] in 20 μL DMEM were individually mixed with 400 ng polyethylenimine (Polysciences) in an equal volume of DMEM and incubated for 20 min at room temperature before adding the transfection mixture to the HTLA cells. 16-24 h after transfection, medium was replaced with 180 μL fresh DMEM containing 1% Penicillin/Streptomycin and 10 mM HEPES and 20 μL of 3 or 3-Homo to reach a final concentration of 100 μM. Supernatants were aspirated 20 h after stimulation and 50 μl per well of Bright-Glo solution (Promega) diluted 20-fold with PBS containing 20 mM HEPES was added into each well. After 15 min incubation at room temperature, luminescence was quantified using a Spectramax i3x microplate reader (Molecular Devices). Activation fold for each sample was calculated by dividing relative luminescence units (RLU) for each condition by RLUs from PBS control. Dose response curves of each chemical were performed in a similar way with varying the ligand concentration from 10^−4 M to 10^−15 M.

[3] = target: T2, histamine receptor H4 (HRH4) (Homo sapiens, UniProt Q9H3N8); test: PRESTO-Tango GPCR screen and dose-response; type: cell-based; settings: for HRH4 dose-response raw reporter signal (Fig. 5b source data): replicate wells
T2 construct: expressed in transfected cells; host or cells: HTLA cells (HEK293 line stably expressing β-arrestin-TEV and tTA-Luciferase)
T2 sequence (Q9H3N8 whole entry): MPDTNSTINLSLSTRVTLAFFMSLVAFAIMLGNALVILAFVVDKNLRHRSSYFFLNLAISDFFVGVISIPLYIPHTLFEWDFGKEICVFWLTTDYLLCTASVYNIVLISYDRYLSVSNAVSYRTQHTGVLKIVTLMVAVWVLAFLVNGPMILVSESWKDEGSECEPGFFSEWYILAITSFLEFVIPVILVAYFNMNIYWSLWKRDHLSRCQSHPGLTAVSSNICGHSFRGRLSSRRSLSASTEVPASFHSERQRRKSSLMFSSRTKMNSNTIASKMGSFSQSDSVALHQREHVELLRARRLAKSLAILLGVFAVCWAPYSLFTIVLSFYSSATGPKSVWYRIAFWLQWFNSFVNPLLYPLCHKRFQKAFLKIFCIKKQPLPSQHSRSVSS
Protocol: as §1

[4] = target: T3, HRH2 (Homo sapiens, UniProt P25021); test: PRESTO-Tango GPCR screen and dose-response; type: cell-based; settings: for HRH2 dose-response raw reporter signal (Fig. 5b source data): replicate wells
T3 construct: expressed in transfected cells; host or cells: HTLA cells (HEK293 line stably expressing β-arrestin-TEV and tTA-Luciferase)
T3 sequence (P25021 whole entry): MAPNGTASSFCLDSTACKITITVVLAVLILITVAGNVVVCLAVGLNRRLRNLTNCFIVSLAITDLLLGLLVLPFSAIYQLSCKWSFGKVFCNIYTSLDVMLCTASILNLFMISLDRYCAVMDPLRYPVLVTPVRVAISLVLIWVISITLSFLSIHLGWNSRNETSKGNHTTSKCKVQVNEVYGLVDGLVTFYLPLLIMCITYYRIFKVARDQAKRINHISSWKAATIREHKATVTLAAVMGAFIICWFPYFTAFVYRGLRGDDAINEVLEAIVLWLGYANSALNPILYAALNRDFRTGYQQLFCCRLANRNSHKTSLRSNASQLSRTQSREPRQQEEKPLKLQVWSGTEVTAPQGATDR
Protocol: as §1

[5] = target: T4, HRH3 (Homo sapiens, UniProt Q9Y5N1); test: PRESTO-Tango GPCR screen and dose-response; type: cell-based; settings: for HRH3 dose-response raw reporter signal (Fig. 5b source data): replicate wells
T4 construct: expressed in transfected cells; host or cells: HTLA cells (HEK293 line stably expressing β-arrestin-TEV and tTA-Luciferase)
T4 sequence (Q9Y5N1 whole entry): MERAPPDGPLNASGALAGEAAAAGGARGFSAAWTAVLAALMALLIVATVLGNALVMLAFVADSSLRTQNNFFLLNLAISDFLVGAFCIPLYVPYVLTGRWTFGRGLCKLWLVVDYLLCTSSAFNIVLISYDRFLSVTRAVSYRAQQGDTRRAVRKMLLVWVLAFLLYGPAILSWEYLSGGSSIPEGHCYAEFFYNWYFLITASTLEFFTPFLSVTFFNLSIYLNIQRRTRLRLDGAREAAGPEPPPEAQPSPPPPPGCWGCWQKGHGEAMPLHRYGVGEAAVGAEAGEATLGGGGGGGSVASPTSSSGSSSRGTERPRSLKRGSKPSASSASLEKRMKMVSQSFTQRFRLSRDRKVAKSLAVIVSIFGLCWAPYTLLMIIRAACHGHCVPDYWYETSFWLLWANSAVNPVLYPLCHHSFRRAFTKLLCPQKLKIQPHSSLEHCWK
Protocol: as §1

[6] = test system: leup operon (leupeptin BGC) promoter in K. oxytoca ATCC 8724; test: GFP-based transcriptional reporter for the leup operon; type: cell-based, Klebsiella oxytoca; settings: carbohydrate screen, M9 + casamino acid + 0.4% indicated sugar, 30 °C, 24 h
Description: We previously examined a panel of 84 clinical K. oxytoca isolates (including recently renamed Klebsiella michiganensis isolates) for the presence of either the leup operon or npsB, an NRPS of the tilimycin/tilivalline gene cluster. […] While the roles of tilivalline and tilimycin in hemorrhagic colitis are well studied[8],[9], the operon for leupeptin biosynthesis is “silent” in K. oxytoca under typical laboratory culture conditions (i.e., leupeptin production is undetectable). Therefore, our study commenced by exploring growth conditions required to trigger leupeptin biosynthesis in K. oxytoca. To achieve this, we generated a green fluorescent protein (GFP)-based reporter system to monitor leup transcription in K. oxytoca ATCC 8724 (recently renamed as Klebsiella michiganensis (ATCC 8724), Fig. 1a). We utilized λ-red recombineering techniques[38] to replace the first biosynthetic gene (leupA) of the leupeptin BGC with a GFP-spectinomycin resistance cassette. […] Consequently, conditions that elicit transcription of the leupeptin BGC can be monitored by GFP fluorescence intensity.
5 mL of the leupeptin reporter strain was cultured aerobically in 10 g/L of LB (Becton Dickinson), yeast extract, GAM (HiMedia Laboratories), horse liver extract (HiMedia Laboratories), malt extract (VWR), meat extract (HiMedia Laboratories), YPD (Dot Scienticifc), brain heart infusion (Becton Dickinson), porcine mucin (Sigma-Aldrich, M1778), clostridial (Becton Dickinson), TSB (VWR), or casamino acid supplemented (5 g/L, VWR) M9 minimal salts (MP Biomedicals) at 30 °C for 24 h at 250 rpm. Cultures were lysed via sonication, centrifuged, and 150 µL of the supernatants were aliquoted into black well clear bottom 96 well plates. GFP fluorescence measurements were performed on a BioTek Synergy H1 plate reader with an excitation wavelength of 488 nm and an emission wavelength of 525 nm. For the carbohydrate screen, the leupeptin reporter strain was cultured in M9 minimal medium (MPbio) supplemented with casamino acid (5 g/L, VWR) and 0.4% indicated sugar aerobically at 30 °C for 24 h at 250 rpm.

With O=C(O)CCc1nc(Cc2ccc(O)cc2)c(CCC(=O)O)nc1Cc1ccc(O)cc1 [compound 6] the “number of differentially regulated genes” value ([1]; one hour, vs DMSO, Padj < 0.05, abs(log2FC) > 1) was 201 genes, the “effect on enterobactin BGC transcription” value ([1]; vs DMSO control, RNA-seq) was “increased enterobactin transcription levels” and the “HRH1 dose-response raw reporter signal (Fig. 5b source data)” value (“HRH1 dose-response raw reporter signal” for short) ([2]; Log(10)Conc (M) -4) was 49886 and 44465. For the same compound, the “HRH1 dose-response raw reporter signal” value ([2]; Log(10)Conc (M) -5) was 46746 and 44008, the “HRH1 dose-response raw reporter signal” value ([2]; Log(10)Conc (M) -6) was 46048 and 46004 and the “HRH1 dose-response raw reporter signal” value ([2]; Log(10)Conc (M) -7) was 45284 and 44521. For the same compound, the “HRH1 dose-response raw reporter signal” value ([2]; Log(10)Conc (M) -8) was 43675 and 43707, the “HRH1 dose-response raw reporter signal” value ([2]; Log(10)Conc (M) -9) was 43412 and 43896 and the “HRH1 dose-response raw reporter signal” value ([2]; Log(10)Conc (M) -10) was 42790 and 43339. For the same compound, the “HRH1 dose-response raw reporter signal” value ([2]; Log(10)Conc (M) -11) was 45349 and 45281, the “HRH1 dose-response raw reporter signal” value ([2]; Log(10)Conc (M) -12) was 45812 and 46139 and the “HRH1 dose-response raw reporter signal” value ([2]; Log(10)Conc (M) -13) was 46567 and 45803. The “HRH1 dose-response raw reporter signal” value ([2]; Log(10)Conc (M) -14) was 45579 and 46637, the “HRH1 dose-response raw reporter signal” value ([2]; Log(10)Conc (M) -15) was 40874 and 41360 and the “activity towards HRH1” value ([2]; PRESTO-Tango dose-response) was “no activity”. The “HRH4 dose-response raw reporter signal (Fig. 5b source data)” value (“HRH4 dose-response raw reporter signal” below) ([3]; Log(10)Conc (M) -5) was 295 and 312, the “HRH4 dose-response raw reporter signal” value ([3]; Log(10)Conc (M) -6) was 348 and 448 and the “HRH4 dose-response raw reporter signal” value ([3]; Log(10)Conc (M) -7) was 304 and 348. The “HRH4 dose-response raw reporter signal” value ([3]; Log(10)Conc (M) -8) was 271 and 366, the “HRH4 dose-response raw reporter signal” value ([3]; Log(10)Conc (M) -9) was 318 and 324 and the “HRH4 dose-response raw reporter signal” value ([3]; Log(10)Conc (M) -10) was 271 and 230. The “HRH4 dose-response raw reporter signal” value ([3]; Log(10)Conc (M) -11) was 342 and 265, the “HRH4 dose-response raw reporter signal” value ([3]; Log(10)Conc (M) -12) was 298 and 248 and the “HRH4 dose-response raw reporter signal” value ([3]; Log(10)Conc (M) -13) was 318 and 271. The “HRH4 dose-response raw reporter signal” value ([3]; Log(10)Conc (M) -14) was 374 and 307, the “HRH4 dose-response raw reporter signal” value ([3]; Log(10)Conc (M) -15) was 242 and 254 and the “activity towards HRH4” value ([3]; PRESTO-Tango dose-response) was “no activity”. For the same compound, the “HRH2 dose-response raw reporter signal (Fig. 5b source data)” value (from here on “HRH2 dose-response raw reporter signal”) ([4]; Log(10)Conc (M) -4) was 68 and 65 and 32, the “HRH2 dose-response raw reporter signal” value ([4]; Log(10)Conc (M) -5) was 50 and 41 and 77 and the “HRH2 dose-response raw reporter signal” value ([4]; Log(10)Conc (M) -6) was 59 and 62 and 44. For the same compound, the “HRH2 dose-response raw reporter signal” value ([4]; Log(10)Conc (M) -7) was 27 and 50 and 35, the “HRH2 dose-response raw reporter signal” value ([4]; Log(10)Conc (M) -8) was 65 and 80 and 47 and the “HRH2 dose-response raw reporter signal” value ([4]; Log(10)Conc (M) -9) was 38 and 97 and 71. The “HRH2 dose-response raw reporter signal” value ([4]; Log(10)Conc (M) -10) was 50 (2×) and 62, the “HRH2 dose-response raw reporter signal” value ([4]; Log(10)Conc (M) -11) was 56 and 27 and 53 and the “HRH2 dose-response raw reporter signal” value ([4]; Log(10)Conc (M) -12) was 53 and 35 and 24. For the same compound, the “HRH2 dose-response raw reporter signal” value ([4]; Log(10)Conc (M) -13) was 59 and 53 and 35, the “HRH2 dose-response raw reporter signal” value ([4]; Log(10)Conc (M) -14) was 71 and 53 (2×) and the “HRH2 dose-response raw reporter signal” value ([4]; Log(10)Conc (M) -15) was 29 and 15 and 32. The “activity towards HRH2” value ([4]; PRESTO-Tango dose-response) was “no activity”, the “HRH3 dose-response raw reporter signal (Fig. 5b source data)” value (“HRH3 dose-response raw reporter signal” below) ([5]; Log(10)Conc (M) -4) was 162 and 59 and 171 and the “HRH3 dose-response raw reporter signal” value ([5]; Log(10)Conc (M) -5) was 94 and 85 and 156. For the same compound, the “HRH3 dose-response raw reporter signal” value ([5]; Log(10)Conc (M) -6) was 136 and 91 and 133, the “HRH3 dose-response raw reporter signal” value ([5]; Log(10)Conc (M) -7) was 124 and 91 and 106 and the “HRH3 dose-response raw reporter signal” value ([5]; Log(10)Conc (M) -8) was 133 and 85 and 109. For the same compound, the “HRH3 dose-response raw reporter signal” value ([5]; Log(10)Conc (M) -9) was 165 and 142 and 209, the “HRH3 dose-response raw reporter signal” value ([5]; Log(10)Conc (M) -10) was 200 and 100 and 109 and the “HRH3 dose-response raw reporter signal” value ([5]; Log(10)Conc (M) -11) was 133 and 100 and 147. The “HRH3 dose-response raw reporter signal” value ([5]; Log(10)Conc (M) -12) was 115 (2×) and 142, the “HRH3 dose-response raw reporter signal” value ([5]; Log(10)Conc (M) -13) was 139 and 91 and 133 and the “HRH3 dose-response raw reporter signal” value ([5]; Log(10)Conc (M) -14) was 127 and 83 and 121. The “HRH3 dose-response raw reporter signal” value ([5]; Log(10)Conc (M) -15) was 112 and 91 and 62 and the “activity towards HRH3” value ([5]; PRESTO-Tango dose-response) was “no activity”.
For OC[C@H]1OC(O)[C@H](O)[C@@H](O)[C@@H]1O (stereo partly shown) [Glucose], the “GFP fluorescence, GFP Strain + Media” value ([6]; leup GFP reporter strain) was 9593 RFU and the “GFP fluorescence, WT + Media” value ([6]; wildtype K. oxytoca without reporter (background)) was 8596 RFU.
